Measured values as given in US8722043B2, “Induction of p53 expression by neutralization of neuropilin-2 for the treatment of cancers” (Diaclone, priority 2008, dated 2014).

What was measured:
[1] = tested on: mutant p53 proteins; details: model of human xenograft; review Levesque & Eastman 2007; cited from earlier work
[2] = tested on: Colo320siRNA-ctrl cells; experiment: Annexin V-APC apoptosis test with or without PFTα pretreatment; type: cell-based, human; details: PFTα 27 μM, 18 h pretreatment
Description: In order to correlate the induction of apoptosis with p53 expression, the Colo320siRNA-ctrl cells were pretreated for 18 h with a chemical inhibitor of p53, pifithrin-α, at a dose of 27 μM (PFTα, Sigma). After pretreatment, the cells are washed twice with 3 ml of PBS and placed in a 24-well plate, at a rate of 100 000 cells/well in 1 ml of RPMI-10% FCS. Non-pretreated cells are placed under the same conditions. The cells are incubated for 5 h with a control murine isotype antibody (BZ1) or ITAC-B1 at 20 μg/ml and the apoptosis is measured as described above.
FIG. 14 represents the results of the apoptosis-induction experiments carried out with the Colo320siRNA-ctrl cells pretreated or not pretreated with PFTα. The percentage of cells labelled with Annexin V-APC is indicated on the y-axis, the cell culture conditions are indicated on the x-axis (control consisting of medium, control consisting of medium supplemented with a control isotype antibody -BZ1-, test consisting of medium supplemented with the ITAC-B1 antibody). The results of the tests carried out with cells pretreated with PFTα are represented in light grey, those of the tests carried out with non-pretreated cells are represented in dark grey.

[3] = tested on: Colo320 human tumour cells; experiment: Tumour colony formation in semi-solid agar medium; type: cell-based; details: for number of colonies formed: 50 μg/ml, 10 days post-seeding (FIG. 9)
Description: In order to determine whether the ITAC-B1 antibody has a neutralizing activity on the formation of tumour colonies in vitro, tests for tumour colony formation in vitro in a semi-solid agar medium containing agar were carried out. The principle of this test is based on bringing Colo320 human tumour cells (which express NRP-2 at their membrane surface and, furthermore, naturally secrete VEGF into the culture medium) into contact with the ITAC-B1 antibody. 4000 Colo320 cells are seeded into each well of a 24-well plate, in a semi-solid medium containing agar, and in the presence of 10 μg/ml of anti-NRP-2 antibody ITAC-B1. By way of comparison, the same test is carried out in the presence of cytotoxic agents with a proven action, i.e. 5-fluorouracil (5-FU), used at a rate of 50 μg/ml, or of Avastin® (bevacizumab: humanized monoclonal antibodies directed against VEGF), used at a rate of 50 μg/ml, or in the presence of a control isotype antibody (mouse IgG1 monoclonal antibody (BZ1)), used at a rate of 10 μg/ml.
At 10 days post-seeding, the colonies were counted under an optical microscope.
Since neuropilin-2 is a coreceptor for VEGF, it was verified whether the activity of ITAC-B1 was dependent on an interaction between NRP-2 and the VEGF produced by the Colo320 cells. With this aim, the tests for Colo320-cell colony formation were carried out under the conditions described above, and in the presence of ITAC-B1 antibody (10 μg/ml), of bevacizumab (50 μg/ml) or of control antibody (10 μg/ml), used separately or in combination.
The results are given in FIG. 10: the y-axis represents the number of colonies formed; on the x-axis, the antibodies present in the culture medium are indicated by a “+”.

[4] = tested on: HT29-NRP-2 tumour cells; experiment: HT29-NRP-2 subcutaneous xenograft, tumour volume; type: in vivo, immunodeficient mice; details: group C: 5-FU intraperitoneally 20 mg/kg D0 to D4, 100 mg/kg at D9
Description: HT29-NRP-2 tumour cells were injected subcutaneously into 20 immunodeficient mice, at a rate of 1×10^6 cells per mouse, in the right flank. 10 days after the injection, the tumours measure approximately 5 mm×5 mm.
In accordance with the protocol described above, group B was inoculated with ITAC-B1 at D0 (12 mg/kg), D3 (6 mg/kg), D7 (12 mg/kg) and D10 (6 mg/kg). Group C was inoculated with 20 mg/kg of 5-FU from D0 to D4 and then with 100 mg/kg at D9. Group D was inoculated with ITAC-B1 at D0 (12 mg/kg), D3 (6 mg/kg), D7 (12 mg/kg) and D10 (6 mg/kg) and with 20 mg/kg of 5-FU from D0 to D4 and 100 mg/kg of 5-FU at D9.
The tumours were measured twice a week, and the volume of the tumours was calculated with the formula: V (mm^3)=d^2×D/2.
FIG. 21 represents the tumour volume as a function of time. Group A (PBS control) is represented by (⋄), group B (mice inoculated with the ITAC-B1 antibody) is represented by (▪), group C (mice inoculated with 5-FU) is represented by (Δ), and group D (mice inoculated both with the ITAC-B1 antibody and with 5-FU) is represented by (x).

[5] = tested on: p53 protein; experiment: Western blotting of p53 expression after antibody treatment; type: cell-based, human; details: HT29-NRP-2 and Colo320^siRNA-ctrl; 20 ng/ml, 48 hours
Description: The HT29, HT29-NRP-2, Colo320^siRNA-ctrl tumour cells and Colo320^siRNA-NRP-2 were exposed to 20 ng/ml of ITAC-B1 antibody or of control antibody, and cultured for 48 hours. After lysis of the cell lines, migration of the protein pellets obtained on a 10% polyacrylamide gel (10 μg of protein per well) and then transfer onto a PVDF membrane, the membrane was incubated overnight with the anti-p53 primary antibody (BD Biosciences, mouse anti-human p53) diluted to 1/500. After washing in TBS/0.1% Tween20, the membranes were incubated for 1 hour with an anti-mouse IgG-HRP secondary antibody diluted to 1/6000. The results are represented in FIG. 19.

[6] = tested on: HT29-NRP-2 cells; experiment: Annexin V-APC apoptosis test; type: cell-based, human; details: selection criterion of the hybridoma clones
Description: In order to determine the ability of the ITAC-B1 antibody to induce apoptosis of tumour cells expressing NRP-2, an in vitro Annexin V-APC apoptosis test was carried out (BD Pharmingen, San Diego, Calif.). This test is based on the externalization of phosphatidylserin by apoptotic cells and on the binding of Annexin V-APC to this molecule.
1 ml of DMEM medium containing 10% of inactivated FCS and 100 000 HT29-NRP-2 cells or 100 000 HT29ctrl cells were seeded, per well, into a 24-well Nunc plate. […] In parallel, “cells alone” controls were carried out, as were negative controls (anti-human mouse IgG1 antibody (BZ1) at the same concentrations as the ITAC-B1 antibody).
[…] When the cells began to detach, 500 μl of DMEM medium-10% FCS were added per well. The cells were then centrifuged, washed twice in PBS, and then taken up in 300 μl of 1× binding buffer (provided in the kit), and then 5 μl of Annexin V-APC were subsequently added to 100 μl of this solution.
The panels of FIG. 13 are point-cloud representations of the flow cytometry analysis. For each of the panels, the fluorescence intensity (corresponding to the labelling of the cells with Annexin V-APC) is represented on the x-axis. The y-axis indicates the granulosity of the cells (Side Scatter or SSC). […] The percentage of cells labelled with Annexin V-APC (corresponding to the percentage of cells having entered into apoptosis) is indicated at the bottom-right of each panel.
The apoptosis induced was then measured by labelling with Annexin V-APC as described above.
The panels of FIG. 15 are point-cloud representations of the flow cytometry analysis. For each of the panels, the fluorescence intensity (corresponding to the labelling of the cells with Annexin V-APC) is represented on the x-axis. The y-axis indicates the granulosity (side scatter) of the cells. The conditions of treatment with the antibodies and the Avastin® are indicated to the left of the panels. The percentage of cells labelled with the Annexin V-APC, corresponding to the percentage of cells having entered into apoptosis, is indicated at the top-right of each panel.

COc1ccc(/C=C/c2nc(NCCCN(C)C)c3ccccc3n2)cc1 [CP-31398]
tumour growth [1]: successfully used to inhibit tumour growth

Cc1ccc(C(=O)Cn2c3c(sc2=N)CCCC3)cc1 [PFTα, pifithrin-α, reference compound]
effect of pretreatment on ITAC-B1-dependent apoptosis [2]: prevents the ITAC-B1-dependent apoptosis

bevacizumab [Avastin®]
number of colonies formed [3]: approximately 120 | effect on the proliferation of the Colo320 cells (number of colonies) ([3]; bevacizumab 50 μg/ml (FIG. 10)): very little effect

O=c1[nH]cc(F)c(=O)[nH]1 [5-FU, 5-fluorouracil, reference compound]
tumour volume [4]: reduction in tumour volume is observed starting from D14 | number of colonies formed [3]: approximately 40

O=C1C2CCN(CC2)C1(CO)CO [PRIMA-1]
tumour growth [1]: successfully used to inhibit tumour growth

CCC(=O)OCN1C(=O)C=CC1=O [MIRA-1]
tumour growth [1]: successfully used to inhibit tumour growth

B1: ITAC-B2: anti-human neuropilin-2 monoclonal antibody, VH SEQ ID No. 6, VL SEQ ID No. 8 (antibody, listed as Mus musculus, V domains shown)
VH: EVQLEESGGGLVKPGGSLKLSCAASGFTFSDYYMYWVRQTPEKRLEWVATISDGGSYTYYPDSIKGRFTISRDNARNNLYLQMSSLKSEDTAMYYCARGGPYRSWFAFWGQGTLVTVSA
VL: DIVITQTPLSLPVSLGDQASISCRSSQSIVYSNGNTYLEWYLQKPGQSPKLLIYKVSNRFSGVPDRFSGSGSGTDFTLKISRVEAEDLGVYYCFQGSHVPPTFGGGTKLEIK
expression of p53 in lines which express NRP-2 [5]: have the Ability to Induce Expression of the p53 Protein | ability to induce apoptosis of tumour cells expressing neuropilin-2 (selection of clones) [6]: ability to induce apoptosis of tumour cells expressing neuropilin-2
